Measurements from patent US20260374792A1, “PHENYL-FREE BISCATIONIC QUATERNARY PHOSPHONIUM COMPOUNDS AS ANTIMICROBIAL AGENTS” (priority 2022, published 2026).

Columns and labels:
[1] = tested on: P. aeruginosa; test: MBEC, biofilm eradication, P. aeruginosa; assay type: cell-based, Pseudomonas aeruginosa; settings: 24 hours, 37 °C, TSB
Protocol: (§1) A regrowth assay was used to establish the MBEC of a compound to evaluate the antibiofilm activity.
(§2) Biofilm eradication experiments were performed using a pegged-lid microtiter plate assay to determine the MBEC values for compounds of interest, as previously described. […] Sci. Rep. 2017, 7, 2003; and Raval, Y. S., Flurin, L., Mohamed, A., Greenwood-Quaintance, K. E., Beyenal, H., & Patel, R. In Vitro Activity of Hydrogen Peroxide and Hypochlorous Acid Generated by Electrochemical Scaffolds Against Planktonic and Biofilm Bacteria. Antimicrob Agents Chemother. 2021, 65, e01966-20. Briefly, […] of mid-log phase culture diluted to ca. 10^6 CFU/mL in tryptic soy broth (TSB) was added to wells of plat-bottom 96-well plates (Thermo Scientific, 266120) and covered with 96-pegged lid (Thermo Scientific, 445497). Plates were incubated to establish bacterial biofilms after incubation at 37 °C for 24 hours. The pegged lid was then removed, washed with PBS, and transferred to another 96-well plate containing 2-fold serial dilutions of the test compounds (the “challenge plate”). The total volume in each well was […], comprising of […] of compound diluted in water/DMSO, with a starting DMSO concentration of 2.5%, and […] of TSB. Plates were incubated statically at 37 °C for 24 hours. Next, the pegged lids were transferred to a fresh 96-well plate containing […] of TSB and incubated overnight at 37 °C. MBEC values were determined as the lowest test concentration that resulted eradicated biofilm (i.e., wells displaying no turbidity in the final plate).

[2] = Dynamic surface tension (bubble pressure tensiometer); assay type: physicochemical; settings: 100, 300 and 1000 ppm in deionized water, 22 °C; 10 to 10,000 ms surface age
Protocol: All samples were analyzed using a Krüss BPT Mobile bubble pressure tensiometer. Solutions of 12(2)12 and ^MeP2P-12,12 were made in concentrations of 100, 300 and 1000 ppm using deionized water. Measurements were conducted at 22+1 °C. Before each sample run, a new capillary tip was installed and the instrument was calibrated with deionized water. The dynamic surface tension (mN/m) was measured as a function of surface bubble age (30 collection points over the range of 10 to 10,000 ms).
In order to further investigate these highly analogous bis-cationic structures, a Krüss bubble pressure tensiometer was utilized to measure the dynamic surface tension of 12(2)12 and ^MeP2P-12,12.
Antimicrobial activity is expected to be affected by differences in solution behavior of amphiphilic molecules, such as the propensity to form micelles and solution dispersion rates. Structural factors such as nature of the charge and the alkyl chain length of the amphiphile have been previously reported to change the behavior of surfactants. These types of structural factors are consistent with the factors that influence the inventors' proposed mechanism of action for bacteria membrane disruption by multicationic QACs. […]

[3] = tested on: E. faecalis (OG1RF); test: MIC against E. faecalis; assay type: cell-based; settings: Enterococcus faecalis, 72 h
Protocol: The term “minimum inhibitory concentration (MIC)” means the lowest concentration of an antimicrobial agent that will inhibit the visible growth of a microorganism after overnight incubation. MIC values against bacteria, for example, the Gram-positive Staphylococcus aureus and Enterococcus faecalis and the Gram-negative Escherichia coli and Pseudomonas aeruginosa were determined by standard methods. See also P. A. Wayne, Methods for Dilution Antimicrobial Tests for Bacteria that Grow Aerobically; Approved Standard, Ninth Edition, 2012, CLSI Document M07-A9, Vol. 32 No. 2.
Biological testing procedures were adapted from prior work by Melander and coworkers. For all biological assays, laboratory strains of methicillin-susceptible Staphylococcus aureus MSSA (SH1000), Staphylococcus aureus CA-MRSA (USA300-0114), Staphylococcus aureus HA-MRSA (ATCC 33591), Escherichia coli (MC4100), Enterococcus faecalis (OG1RF), Acinetobacter baumannii (ATCC 17978), were grown with shaking at 37 °C overnight from freezer stocks in 5 mL of the indicated media: SH1000, OG1RF, MC4100, USA300-0114, and ATCC 17978 were grown in BDTM Mueller-Hinton broth (MHB), whereas ATCC 33591 was grown in BDTM tryptic soy broth (TSB). The inoculum were then streaked onto Mueller-Hinton agar (MHA) plates and grown overnight at 37 °C. From the plates, single colonies were selected, diluted into 50 mL of fresh media and grown overnight at 37 °C with shaking for use in the MIC assays. Optical density (OD) measurements were obtained using a SpectraMax iD3 plate reader (Molecular Devices, United States).
Compounds were serially diluted two-fold from stock solutions (1.0 mM) to yield twelve 100 μL test concentrations, wherein the starting concentration of dimethyl sulfoxide (DMSO) was 2.5%. Overnight S. aureus, E. faecalis, E. coli, A. baumannii, USA300-0114 (CA-MRSA), and ATCC 33591 (HA-MRSA) cultures were diluted to ca. 10^6 CFU/mL in MHB or TSB and regrown to mid-exponential phase, as determined by optical density recorded at 600 nm (OD600). All cultures were then diluted again to ca. 10^6 CFU/mL and 100 μL were inoculated into each well of a U-bottom 96-well plate (Corning, 351177) containing 100 μL of compound solution. Plates were incubated statically at 37 °C for 72 hours upon which wells were evaluated visually for bacterial growth. The MIC was determined as the lowest concentration of compound resulting in no bacterial growth visible to the naked eye, based on the highest value in three independent experiments. Aqueous DMSO controls were conducted as appropriate for each compound.
The prepared library of biscationic amphiphilic compounds was assessed for performance as antibacterial disinfectants by determining the minimum inhibitory concentration (MIC) for each against a panel of bacteria. The bacteria selected for the study were chosen to evaluate the broad spectrum antimicrobial performance of the QPCs, and therefore, included both Gram-positive and Gram-negative bacterial strains, including those with known antimicrobial resistance mechanisms. These bacteria include the Gram-positive strains of methicillin-susceptible Staphylococcus aureus [MSSA; SH1000], community-acquired methicillin-resistant Staphylococcus aureus [CA-MRSA; USA 300-0114], hospital-acquired methicillin-resistant Staphylococcus aureus [HA-MRSA; ATCC 33591] and the […], Escherichia coli [MC4100], Acinetobacter baumannii [ATCC 17498] and Pseudomonas aeruginosa [PAO1].

[4] = tested on: E. faecalis; test: MBEC, biofilm eradication, E. faecalis; assay type: cell-based, Enterococcus faecalis; settings: 24 hours, 37 °C, TSB
Protocol: as §1, §2

Structure (SMILES)	MBEC [1] [µM]	dynamic surface tension (in words) [2]	MIC [3] [µM]	MBEC [4] [µM]
CCCCCCCCCCCC[N+](C)(C)CC[N+](C)(C)CCCCCCCCCCCC [12(2)12, reference compound]	>250	behave almost identically in solution	8	8
CCCCCCCCCCCC[P+](C)(C)CC[P+](C)(C)CCCCCCCCCCC [^MeP2P-12,12]	>250	behave almost identically in solution	4	8
